From patent US20240067632A1, “WEE1 Degrading Compounds and Uses Thereof” (Bristol-Myers Squibb Company, priority 2022, published 2024)

Assays:
WEE1 = molecular target: T1, WEE1 (Homo sapiens, UniProt P30291+Q96SW2); test: WEE1-ePL degradation assay (LentiX-WEE1-ePL-GSPT1-ND cells, InCELL Hunter luminescence, 4 h); type: cell-based; conditions: 293T-LentiX WEE1-ePL cells; for 293T-LentiX WEE1-ePL Degradation 4 hr (Ymin): lower limit of the fit (0 = luciferase inhibitor, Ymax = DMSO control); for DC50: read-out: 293T-LentiX WEE1-ePL Degradation 4 hr (EC50)
T1 construct: C-terminal ePL-tagged (DiscoverX, Fremont, CA) full-length WEE1 expression construct; expressed in transfected cells; host or cells: LentiX-HEK293T (Invitrogen), lentiviral transduction; co-expressing GSPT1-GN (G576N, lacking the first 158 amino acids)
Outline: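 Degradation EC50 was fitted by a four-parameter logistic model, with the upper limit taken from DMSO wells. Luminescence was read with InCELL Hunter reagent after 30 min at room temperature, following a 4 h, 37° C exposure of 2500 cells/well. Cells were LentiX-HEK293T carrying ePL-tagged full-length WEE1, dosed in 10 points (3-fold) from 1 or 10 uM.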

MKN45 cells = test: MKN45 cell proliferation assay (Cell-Titer-Glo, 120 h); type: cell-based; conditions: for EC50: Homo sapiens, MKN-45, 120 h, Cell-Titer-Glo, growth inhibition, read-out: MKN45 Cell Prolif. 120 hr (EC50); for MKN45 Cell Prolif. 120 hr (Ymin-Obs): minimal percent of DMSO control observed in the concentrations tested
Outline: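 Growth inhibition was read as blank-corrected Cell-Titer-Glo luminescence expressed as percent DMSO control after 120 h at 37 C, 400 cells/well. Compounds tested in triplicate as 10-point half-log series from 1 or 10 uM, 0.1% DMSO; four-parameter fit gave EC50, and lowest observed percent control was reported as Ymin-obs.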

Compound | 293T-LentiX WEE1-ePL Degradation 4 hr (Ymin) (WEE1) | DC50 (WEE1) [nM] | EC50 (MKN45 cells) [nM] | MKN45 Cell Prolif. 120 hr (Ymin-Obs) (MKN45 cells)
O=C1CCC(N2Cc3cc(O[C@H]4CCN(Cc5ccc6nc(N7CCC78CCOCC8)ncc6c5)C4)ccc3C2=O)C(=O)N1 (stereo partly drawn) [3-(5-{[(3S)-1-[(2-{7-oxa-1-azaspiro[3.5]nonan-1-yl}quinazolin-6-yl)methyl]pyrrolidin-3-yl]oxy}-1-oxo-2,3-dihydro-1H-isoindol-2-yl)piperidine-2,6-dione] | 37 | 11.4 | 12.6 | 13.59
O=C1CCC(N2Cc3cc(O[C@H]4CCN(Cc5ccc6nc(N7CCC78CCOCC8)ccc6c5)C4)ccc3C2=O)C(=O)N1 (stereo partly drawn) [3-(5-{[(3S)-1-[(2-{7-oxa-1-azaspiro[3.5]nonan-1-yl}quinolin-6-yl)methyl]pyrrolidin-3-yl]oxy}-1-oxo-2,3-dihydro-1H-isoindol-2-yl)piperidine-2,6-dione] | 33 | 6.05 | 3.7 | 7.36
O=C1CCC(N2Cc3cc(O[C@H]4CCN(Cc5ccc6nc(N7CC8(CCOCC8)C7)ncc6c5)C4)ccc3C2=O)C(=O)N1 (stereo partly drawn) [3-(5-{[(3S)-1-[(2-{7-oxa-2-azaspiro[3.5]nonan-2-yl}quinazolin-6-yl)methyl]pyrrolidin-3-yl]oxy}-1-oxo-2,3-dihydro-1H-isoindol-2-yl)piperidine-2,6-dione] | 35 | 16.6 | 10.2 | 9.958
O=C1CCC(N2Cc3cc(O[C@H]4CCN(Cc5ccc6nc(N7CC8(CCOCC8)C7)ccc6c5)C4)ccc3C2=O)C(=O)N1 (stereo partly drawn) [3-(5-{[(3S)-1-[(2-{7-oxa-2-azaspiro[3.5]nonan-2-yl}quinolin-6-yl)methyl]pyrrolidin-3-yl]oxy}-1-oxo-2,3-dihydro-1H-isoindol-2-yl)piperidine-2,6-dione] | 36 | 1.94 | 2.84 | 10.13
O=C1CCC(N2Cc3cc(O[C@H]4CCN(Cc5ccc6nc(N7CCCC78CCOCC8)ncc6c5)C4)ccc3C2=O)C(=O)N1 (stereo partly drawn) [3-(5-{[(3S)-1-[(2-{8-oxa-1-azaspiro[4.5]decan-1-yl}quinazolin-6-yl)methyl]pyrrolidin-3-yl]oxy}-1-oxo-2,3-dihydro-1H-isoindol-2-yl)piperidine-2,6-dione] | 47 | 18.1 | 14.1 | 20.87
O=C1CCC(N2Cc3cc(O[C@H]4CCN(Cc5ccc6nc(N7CCCC78CCOCC8)ccc6c5)C4)ccc3C2=O)C(=O)N1 (stereo partly drawn) [3-(5-{[(3S)-1-[(2-{8-oxa-1-azaspiro[4.5]decan-1-yl}quinolin-6-yl)methyl]pyrrolidin-3-yl]oxy}-1-oxo-2,3-dihydro-1H-isoindol-2-yl)piperidine-2,6-dione] | 47 | 11.3 | 15.5 | 20.2
O=C1CCC(N2Cc3cc(O[C@H]4CCN(Cc5ccc6ncc(F)cc6c5F)C4)ccc3C2=O)C(=O)N1 (stereo partly drawn) [3-(5-{[(3S)-1-[(3,5-difluoroquinolin-6-yl)methyl]pyrrolidin-3-yl]oxy}-1-oxo-2,3-dihydro-1H-isoindol-2-yl)piperidine-2,6-dione] | 28.96 | 8.71 | 38.3 | 12.86
Cc1cnc2ccc(CN3CC[C@H](Oc4ccc5c(c4)CN(C4CCC(=O)NC4=O)C5=O)C3)c(C)c2c1 (stereo partly drawn) [3-(5-{[(3S)-1-[(3,5-dimethylquinolin-6-yl)methyl]pyrrolidin-3-yl]oxy}-1-oxo-2,3-dihydro-1H-isoindol-2-yl)piperidine-2,6-dione] | 39.05 | 7.92 | 93.8 | 53.11
Cc1cncc(CN2CC[C@H](Oc3ccc4c(c3)CN(C3CCC(=O)NC3=O)C4=O)C2)c1C (stereo partly drawn) [3-(5-{[(3S)-1-[(4,5-dimethylpyridin-3-yl)methyl]pyrrolidin-3-yl]oxy}-1-oxo-2,3-dihydro-1H-isoindol-2-yl)piperidine-2,6-dione] | 37.63 | 40.7 | 407 | 62.92
CN1CC(=O)Oc2cc(CN3CC[C@H](Oc4ccc5c(c4)CN(C4CCC(=O)NC4=O)C5=O)C3)ccc21 (stereo partly drawn) [3-(5-{[(3S)-1-[(4-methyl-2-oxo-3,4-dihydro-2H-1,4-benzoxazin-7-yl)methyl]pyrrolidin-3-yl]oxy}-1-oxo-2,3-dihydro-1H-isoindol-2-yl)piperidine-2,6-dione] | 52 | 24.2 | > 10000 | 91.915
CN1C(=O)COc2ccc(CN3CC[C@H](Oc4ccc5c(c4)CN(C4CCC(=O)NC4=O)C5=O)C3)cc21 (stereo partly drawn) [3-(5-{[(3S)-1-[(4-methyl-3-oxo-3,4-dihydro-2H-1,4-benzoxazin-6-yl)methyl]pyrrolidin-3-yl]oxy}-1-oxo-2,3-dihydro-1H-isoindol-2-yl)piperidine-2,6-dione] | 56 | 47.9 | > 10000 | 84.725
Cc1ccnc(CN2CC[C@H](Oc3ccc4c(c3)CN(C3CCC(=O)NC3=O)C4=O)C2)c1 (stereo partly drawn) [3-(5-{[(3S)-1-[(4-methylpyridin-2-yl)methyl]pyrrolidin-3-yl]oxy}-1-oxo-2,3-dihydro-1H-isoindol-2-yl)piperidine-2,6-dione] | 38.55 | 65.4 | 1330 | 42.67

Now from value to molecule, other results behind:

293T-LentiX WEE1-ePL Degradation 4 hr (Ymin) (WEE1) | DC50 (WEE1) [nM] | EC50 (MKN45 cells) [nM] | Compound | MKN45 Cell Prolif. 120 hr (Ymin-Obs) (MKN45 cells)
33.29 | 6.95 | 53.6 | Cc1nc2ccc(CN3CC[C@H](Oc4ccc5c(c4)CN(C4CCC(=O)NC4=O)C5=O)C3)cc2cc1F (stereo partly drawn) [3-(5-{[(3S)-1-[(3-fluoro-2-methylquinolin-6-yl)methyl]pyrrolidin-3-yl]oxy}-1-oxo-2,3-dihydro-1H-isoindol-2-yl)piperidine-2,6-dione] | 18.86
34.66 | 8.72 | 75.7 | O=C1CCC(N2Cc3cc(O[C@H]4CCN(Cc5ccc6ncc(F)cc6c5)C4)ccc3C2=O)C(=O)N1 (stereo partly drawn) [3-(5-{[(3S)-1-[(3-fluoroquinolin-6-yl)methyl]pyrrolidin-3-yl]oxy}-1-oxo-2,3-dihydro-1H-isoindol-2-yl)piperidine-2,6-dione] | 19.555
34 | 3.25 | 19.1 | COc1cnc2ccc(CN3CC[C@H](Oc4ccc5c(c4)CN(C4CCC(=O)NC4=O)C5=O)C3)cc2c1 (stereo partly drawn) [3-(5-{[(3S)-1-[(3-methoxyquinolin-6-yl)methyl]pyrrolidin-3-yl]oxy}-1-oxo-2,3-dihydro-1H-isoindol-2-yl)piperidine-2,6-dione] | 12.81
38.21 | 4.47 | 63.5 | Cc1cnc2ccc(CN3CC[C@H](Oc4ccc5c(c4)CN(C4CCC(=O)NC4=O)C5=O)C3)cc2c1 (stereo partly drawn) [3-(5-{[(3S)-1-[(3-methylquinolin-6-yl)methyl]pyrrolidin-3-yl]oxy}-1-oxo-2,3-dihydro-1H-isoindol-2-yl)piperidine-2,6-dione] | 21.51
32.06 | 4.29 | 392 | Cc1cc(Cl)c2cc(CN3CC[C@H](Oc4ccc5c(c4)CN(C4CCC(=O)NC4=O)C5=O)C3)ccc2n1 (stereo partly drawn) [3-(5-{[(3S)-1-[(4-chloro-2-methylquinolin-6-yl)methyl]pyrrolidin-3-yl]oxy}-1-oxo-2,3-dihydro-1H-isoindol-2-yl)piperidine-2,6-dione] | 44.06
69.445 | 22.7 | ≥ 10000 | Cc1cc(F)c2cc(CN3CC[C@H](Oc4ccc5c(c4)CN(C4CCC(=O)NC4=O)C5=O)C3)ccc2n1 (stereo partly drawn) [3-(5-{[(3S)-1-[(4-fluoro-2-methylquinolin-6-yl)methyl]pyrrolidin-3-yl]oxy}-1-oxo-2,3-dihydro-1H-isoindol-2-yl)piperidine-2,6-dione] | 24.82
73 | 528 | > 10000 | Cc1cc(O)c2cc(CN3CC[C@H](Oc4ccc5c(c4)CN(C4CCC(=O)NC4=O)C5=O)C3)ccc2n1 (stereo partly drawn) [3-(5-{[(3S)-1-[(4-hydroxy-2-methylquinolin-6-yl)methyl]pyrrolidin-3-yl]oxy}-1-oxo-2,3-dihydro-1H-isoindol-2-yl)piperidine-2,6-dione] | 87.83
44.38 | 26.8 | 1500 | COc1cc(C)nc2ccc(CN3CC[C@H](Oc4ccc5c(c4)CN(C4CCC(=O)NC4=O)C5=O)C3)cc12 (stereo partly drawn) [3-(5-{[(3S)-1-[(4-methoxy-2-methylquinolin-6-yl)methyl]pyrrolidin-3-yl]oxy}-1-oxo-2,3-dihydro-1H-isoindol-2-yl)piperidine-2,6-dione] | 47.92
